The text below walks through data of ChEMBL document CHEMBL3351890, “Azapropellanes with anti-influenza a virus activity” (ACS Med Chem Lett, 2014).

Activity calls are given as the source filed them. The calls are words filed in the database; no cut-off is given here.

Experiment [1] has as its system Matrix protein 2 (Influenza A virus), P06821 [V27A]. As to the kind of experiment: Inhibition of influenza A virus wild type M2 proton channel V27A mutant expressed in Xenopus oocytes at 100 uM by two-electrode voltage clamp analysis. The experiment is classed as cell-based. Background: Two-electrode voltage clamp is typically applied to oocytes expressing channels or transporters.

Experiment [2] has as its system Matrix protein 2 (Influenza A virus), P06821 [withheld]. The experiment is described as follows: Inhibition of influenza A virus wild type M2 proton channel S31N mutant expressed in Xenopus oocytes at 100 uM by two-electrode voltage clamp analysis. The experiment is classed as cell-based.

For `C=C1CC23CNCC2(C1)CC(=C)C3` (centres undefined), the inhibition result in experiment [1] and in experiment [2] was “inactive” throughout.

Consider `C=C1CC23CC=CCC2(CNC3)C1` (centres undefined), for which the inhibition result in experiment [1] and in experiment [2] was “inactive” throughout.

Consider `CC1CC23CC(C)CC2(C1)CN(C(=N)N)C3` (centres undefined), for which the inhibition result in experiment [1] and in experiment [2] was “inactive” in each case.

As for `C1CC23CCCC2(C1)CNC3` (centres undefined), the inhibition result in experiment [1] and in experiment [2] was “inactive” in each case.

As for `CC1CC23CNCC2(C1)CC(C)C3` (centres undefined), the inhibition result in experiment [1] and in experiment [2] was “inactive” in each case.

As to `C1=CC[C@]23CCCC[C@@]2(C1)CNC3`, the inhibition result in experiment [1] and in experiment [2] was “inactive” in each case.

Turning to `C=C1CC23CCCC2(CNC3)C1` (centres undefined), the inhibition entry in experiment [1] and in experiment [2] was “inactive” throughout.
